One experiment has as its target T1, AtACS11 (Arabidopsis thaliana, UniProt Q9S9U6).
T1 construct: gene ACS11; recombinant, His or GST tag, from E. coli
T1 sequence (Q9S9U6 1-460): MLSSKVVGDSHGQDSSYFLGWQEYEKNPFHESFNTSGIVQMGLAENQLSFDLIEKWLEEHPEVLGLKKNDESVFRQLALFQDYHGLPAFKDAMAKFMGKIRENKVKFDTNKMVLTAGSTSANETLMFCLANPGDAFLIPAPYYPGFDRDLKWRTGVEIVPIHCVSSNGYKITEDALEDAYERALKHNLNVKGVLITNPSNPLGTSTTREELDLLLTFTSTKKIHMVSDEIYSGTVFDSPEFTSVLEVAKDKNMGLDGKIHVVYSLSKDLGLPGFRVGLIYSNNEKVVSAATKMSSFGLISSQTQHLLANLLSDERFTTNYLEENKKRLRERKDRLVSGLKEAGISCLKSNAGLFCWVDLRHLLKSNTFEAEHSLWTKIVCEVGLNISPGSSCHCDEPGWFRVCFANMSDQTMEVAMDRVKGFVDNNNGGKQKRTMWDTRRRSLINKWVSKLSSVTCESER
Put plainly: pyruvate formation, […],4-dinitrophenylhydrazine, A520. Particulars: Cβ-S lyase activity; 4 mM L-cystine, 100 μM PLP, 30°C. It counts as biochemical.

A further experiment deals with T2, MdACS1 (Malus domestica, UniProt P37821).
T2 construct: gene ACS-1; recombinant, His or GST tag, from E. coli
T2 sequence (P37821 1-473): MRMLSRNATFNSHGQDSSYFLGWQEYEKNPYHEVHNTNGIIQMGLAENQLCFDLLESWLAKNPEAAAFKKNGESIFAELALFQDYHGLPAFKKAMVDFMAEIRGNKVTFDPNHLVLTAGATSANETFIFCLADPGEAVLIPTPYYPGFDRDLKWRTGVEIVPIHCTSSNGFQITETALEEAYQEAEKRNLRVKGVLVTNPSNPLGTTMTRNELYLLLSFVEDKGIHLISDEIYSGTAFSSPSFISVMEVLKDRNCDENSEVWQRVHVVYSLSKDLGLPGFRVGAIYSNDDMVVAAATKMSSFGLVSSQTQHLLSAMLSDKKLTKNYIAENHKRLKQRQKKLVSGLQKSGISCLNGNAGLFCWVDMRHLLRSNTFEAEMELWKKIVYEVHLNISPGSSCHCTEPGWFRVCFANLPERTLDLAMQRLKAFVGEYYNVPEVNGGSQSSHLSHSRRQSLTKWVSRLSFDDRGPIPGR
The experiment is described as above. It counts as biochemical. Particulars: Cβ-S lyase activity; 4 mM L-cystine, 100 μM PLP, 30°C.

Turning to `N[C@@H](CSSC[C@H](N)C(=O)O)C(=O)O` [L-cystine], the “pyruvate formation, 2,4-dinitrophenylhydrazine, A520” value at AtACS11 is “all of them had ACS and Cβ-S lyase dual enzymatic activities”; on MdACS1 it was “MdACS1 indeed had both ACS and Cβ-S lyase activities in vitro”.

For the origin of these results see article PMC8580319, “Dual activities of ACC synthase: Novel clues regarding the molecular evolution of ACS genes” (Science Advances, 2021).
